Like-named read-outs stand apart in the source and are kept apart here.
Experiments:
[1] = target: HCV NS3/4A protease complex, BMS strain (UniProt P27958, C1454S/C1711G, species not given/STRAIN_BMS); assay: Recombinant HCV NS3/4A protease complex FRET peptide assay (BMS strain); assay type: biochemical, HCV genotype 1a
Outline: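 Recombinant BMS-strain NS3/4A (His-tagged NS4A with three-lysine tail, E. coli) at 2-3 nM preincubated 1 min with compound, then 2 μM ester-linked NS4A/NS4B-based FRET peptide added. Fluorescence followed in real time ~15 min at 25° C. Percent inhibition from slope of linear fluorescence change versus no-compound control.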

[2] = test system: HCV replicon in Huh7 cells; assay: HCV replicon cell-based assay; set-up: species or system HCV strain 1B; settings: HCV replicon, Huh7 cells, read-out: EC50 range
[3] = NS3/4A BMS strain; read-out: IC50 range

Compound | IC50 [1, 3] | EC50 [2] | EC50 ([2]; Hepatitis C virus, Huh-7) | IC50 ([1]; read-out: IC50 range; NS3/4A BMS strain)
C=C[C@@H]1C[C@]1(NC(=O)[C@@H]1C[C@@H](Oc2nc(-c3ccoc3)c(OC)c3ccccc23)CN1C(=O)[C@@H](NC(=O)OC(C)(C)C)C(C)(C)C)C(=O)NS(=O)(=O)C1CC1 [Compound 229, BOCNH-P3(L-t-BuGly)-P2[(4R)-(3-furan-3-yl-4methoxy -isoquinolin-1-oxo)-S-proline]-P1(1R,2S VinylAcca)-CONHSO2Cyclopropane] | < 100 nM | < 100 nM |  | 
C=C[C@@H]1C[C@]1(NC(=O)[C@@H]1C[C@@H](Oc2ccnc3cc(Cl)ccc23)CN1C(=O)[C@@H](NC(=O)OC1CCCC1)C(C)(C)C)C(=O)NS(=O)(=O)C1CC1 [Compound 372] | < 100 nM |  | < 100 nM | 
CC[C@@H]1C[C@]1(NC(=O)[C@@H]1C[C@@H](Oc2nccc3cc(OC)ccc23)CN1C(=O)[C@@H](NC(=O)OC(C)(C)C)C(C)(C)C)C(=O)NS(=O)(=O)C(C)C [Compound 15] | 100 to 1000 nM |  | 1000 to 10000 nM | 
C=CC1C[C@]1(NC(=O)[C@@H]1C[C@@H](Oc2cc(C(F)(F)F)nc3c(Cl)cccc23)CN1C(=O)[C@@H](NC(=O)OC(C)(C)C)C(C)(C)C)C(=O)NS(=O)(=O)C1CC1 (stereo partly drawn) [Compound 183, BOCNH-P3(L-tert-BuGly)-P2[(4R)-(2-trifluoromethyl, 8-chloro quinolin-4-oxo)-S-proline]-P1(1R,2S Vinyl Acca)-CONHSO2-Cyclopropane] | < 100 nM |  | < 100 nM | 
C=C[C@@H]1C[C@]1(NC(=O)[C@@H]1C[C@@H](Oc2cncc(-c3ccoc3)c2)CN1C(=O)[C@@H](NC(=O)OC(C)(C)C)C(C)(C)C)C(=O)NS(=O)(=O)C1CC1 [Compound 424] | < 100 nM |  | 100 to 1000 nM | 
C=C[C@@H]1C[C@]1(NC(=O)[C@@H]1CC(Oc2nccc3cc(OC)ccc23)CN1C(=O)[C@H](CCCC)N(C)C(=O)OC(C)(C)C)C(=O)NS(=O)(=O)C1CC1 (some centres unmarked) [Compound 87] | 1000 to 10000 nM |  | 10000 to 100000 nM | 
C=C[C@@H]1C[C@]1(NC(=O)[C@@H]1C[C@@H](Oc2nccc3cc(Cl)ccc23)CN1C(=O)[C@@H](NC(=O)OC(C)(C)C)C(C)(C)C)C(=O)NS(=O)(=O)C1CC1 [Compound 20] | < 100 nM |  | 100 to 1000 nM | 
C=C[C@@H]1C[C@]1(NC(=O)[C@@H]1C[C@@H](Oc2ccc3ccccc3n2)CN1C(=O)[C@@H](NC(=O)OC(C)(C)C)C(C)(C)C)C(=O)NS(=O)(=O)C1CC1 [Compound 7] | < 100 nM |  | 100 to 1000 nM | 
C=C[C@@H]1C[C@]1(NC(=O)[C@@H]1C[C@@H](Oc2ccnc3cc(OC)ccc23)CN1C(=O)[C@@H](NC(=O)OC(C)(C)C)C(C)(C)C)C(=O)NS(=O)(=O)C1CC1 [Compound 375] | < 100 nM |  | < 100 nM | 
C=CC1CC1(NC(=O)C1CC(Oc2nc(Br)c(O)c3ccccc23)CN1C(=O)C(NC(=O)OC(C)(C)C)C(C)(C)C)C(=O)NS(=O)(=O)C1CC1 (centres unmarked) [Compound 224] | < 100 nM |  | 100 to 1000 nM | 
C=CC1C[C@]1(NC(=O)[C@@H]1C[C@@H](Oc2ccnc3cc(C(F)(F)F)ccc23)CN1C(=O)[C@@H](NC(=O)OC(C)(C)C)C(C)(C)C)C(=O)NS(=O)(=O)C1CC1 (stereo partly drawn) [Compound 185, BOCNH-P3(L-tert-BuGly)-P2[(4R)-(7-trifluoromethyl quinolin-4-oxo)-S-proline]-P1(1R,2S Vinyl Acca)-CONHSO2-Cyclopropane] | < 100 nM |  | < 100 nM | 
C=C[C@@H]1C[C@]1(NC(=O)[C@@H]1C[C@@H](Oc2ccnc(-c3ccccc3)c2)CN1C(=O)[C@@H](NC(=O)OC1CCCC1)C(C)(C)C)C(=O)NS(=O)(=O)C1CC1 [Compound 421] | < 100 nM |  | 100 to 1000 nM | 
C=C[C@@H]1C[C@]1(NC(=O)[C@@H]1CC(Oc2nccc3cc(OC)ccc23)CN1C(=O)[C@@H](NC(N)=O)C(C)(C)C)C(=O)NS(=O)(=O)C1CC1 (some centres unmarked) [Compound 80] | < 100 nM |  | 1000 to 10000 nM | 
C=CC1C[C@]1(NC(=O)[C@@H]1C[C@@H](Oc2nccc(-c3ccccc3)n2)CN1C(=O)[C@@H](NC(=O)OC)C(C)(C)C)C(=O)NS(=O)(=O)C1CC1 (some centres unmarked) [Compound 335] | < 100 nM |  | 1000 to 10000 nM | 
C=C[C@@H]1C[C@]1(NC(=O)[C@@H]1C[C@@H](Oc2nccc3c(Cl)c(OC)ccc23)CN1C(=O)[C@@H](NC(=O)OC(C)(C)C)C(C)(C)C)C(=O)NS(=O)(=O)C1CC1 [Compound 275] | < 100 nM |  | < 100 nM | 
C=C[C@@H]1C[C@]1(NC(=O)[C@@H]1C[C@@H](Oc2nccc3cc(O)ccc23)CN1C(=O)[C@@H](NC(=O)OC(C)(C)C)C(C)(C)C)C(=O)NS(=O)(=O)C1CC1 [Compound 280] | < 100 nM |  | < 100 nM | 
CC[C@@H]1C[C@]1(NC(=O)[C@@H]1C[C@@H](Oc2nccc3c4c(ccc23)OCCO4)CN1C(=O)[C@@H](NC(=O)OC(C)(C)C)C(C)(C)C)C(=O)NS(=O)(=O)C1CC1 [Compound 290] | < 100 nM |  | < 100 nM | 

Compound | IC50 [1, 3] | EC50 [2] | EC50 ([2]; Hepatitis C virus, Huh-7) | IC50 ([1]; read-out: IC50 range; NS3/4A BMS strain)
C=CC1C[C@]1(NC(=O)[C@@H]1C[C@@H](Oc2ccnc3ccc(F)cc23)CN1C(=O)[C@@H](NC(=O)OC(C)(C)C)C(C)(C)C)C(=O)NS(=O)(=O)C1CC1 (stereo partly drawn) [Compound 239, BOCNH-P3(L-t-BuGly)-P2[(4R)-(6-fluoroquinoline-4-oxo)-S -proline]-P1(1R,2S VinylAcca)-CONHSO2Cyclopropane] | < 100 nM |  | < 100 nM | 
C=C[C@@H]1C[C@]1(NC(=O)C1CC(Oc2nc(-c3ccccc3)nc3ccccc23)CN1C(=O)[C@@H](NC(=O)OC(C)(C)C)C(C)(C)C)C(=O)NS(=O)(=O)C1CC1 (some centres unmarked) [Compound 47] | < 100 nM |  | 100 to 1000 nM | 
C=C[C@@H]1C[C@]1(NC(=O)[C@@H]1C[C@@H](Oc2nccc3c(F)cccc23)CN1C(=O)[C@@H](NC(=O)OC(C)(C)C)C(C)(C)C)C(=O)NS(=O)(=O)C1CC1 [Compound 255] | < 100 nM |  | 100 to 1000 nM | 
C=C[C@@H]1CC1(NC(=O)[C@@H]1CC(Oc2nccc3cc(OC)ccc23)CN1C(=O)[C@@H](NC(=O)OC1CCCC1)C(C)(C)C)C(=O)NS(=O)(=O)C1CC1 (some centres unmarked) [Compound 70] | < 100 nM |  | < 100 nM | 
C=C[C@@H]1C[C@]1(NC(=O)[C@@H]1C[C@@H](Oc2nccc3cc(OC)ccc23)CN1C(=O)[C@H](CC(=O)OCc1ccccc1)NC(=O)OC(C)(C)C)C(=O)NS(=O)(=O)C1CC1 [Compound 137] | < 100 nM |  | < 100 nM | 
C=C[C@@H]1C[C@]1(NC(=O)[C@@H]1C[C@@H](Oc2nccc3cc(OC)ccc23)CN1C(=O)[C@@H](N)[C@H](C)OC)C(=O)NS(=O)(=O)C1CC1 [Compound 100] |  |  | 1000 to 10000 nM | 100 to 1000 nM
C=C[C@@H]1C[C@]1(NC(=O)[C@@H]1C[C@@H](Oc2ccnc(-c3cccn3C)c2)CN1C(=O)[C@@H](NC(=O)OC(C)(C)C)C(C)(C)C)C(=O)NS(=O)(=O)C1CC1 [Compound 434] | < 100 nM |  | 100 to 1000 nM | 
C=C[C@@H]1C[C@]1(NC(=O)[C@@H]1C[C@@H](Oc2cncc(-c3csc(C)n3)c2)CN1C(=O)[C@@H](NC(=O)OC(C)(C)C)C(C)(C)C)C(=O)NS(=O)(=O)C1CC1 [Compound 433] | 100 to 1000 nM |  | 1000 to 10000 nM | 
C=CC1C[C@]1(NC(=O)[C@@H]1C[C@@H](Oc2nccc(-c3nccs3)n2)CN1C(=O)[C@@H](NC(=O)CC1CC1)C(C)(C)C)C(=O)NS(=O)(=O)C1CC1 (some centres unmarked) [Compound 340] | < 100 nM |  | 10000 to 100000 nM | 
C=C[C@@H]1C[C@]1(NC(=O)[C@@H]1C[C@@H](Oc2nc(-c3ccco3)c(OC)c3ccccc23)CN1C(=O)[C@@H](NC(=O)OC(C)(C)C)C(C)(C)C)C(=O)NS(=O)(=O)C1CC1 [Compound 230, BOCNH-P3(L-t-BuGly)-P2[(4R)-(3-furan-2-yl-4-methoxy -isoquinolin-1-oxo)-S-proline]-P1(1R,2S VinylAcca)-CONHSO2Cyclopropane] | 100 to 1000 nM | 100 to 1000 nM |  | 
C=C[C@@H]1C[C@]1(NC(=O)[C@@H]1C[C@@H](Oc2nccc3ccccc23)CN1C(=O)[C@@H](NC(=O)Oc1ccc(F)cc1)C(C)(C)C)C(=O)NS(=O)(=O)C1CC1 [Compound 122] | < 100 nM |  | 100 to 1000 nM | 
C=C[C@@H]1C[C@]1(NC(=O)[C@@H]1C[C@@H](Oc2nccc3cc(OC)ccc23)CN1C(=O)[C@@H](NC(=O)OC1CCCC1)C(C)(C)C)C(=O)NS(=O)(=O)C1CCC1 [Compound 380] | < 100 nM |  | 100 to 1000 nM | 
C=C[C@@H]1C[C@]1(NC(=O)[C@@H]1C[C@@H](Oc2nccc3cc(OC)ccc23)CN1C(=O)[C@H](CC(=O)O)NC(=O)OC(C)(C)C)C(=O)NS(=O)(=O)C1CC1 [Compound 140] | < 100 nM |  | 1000 to 10000 nM | 
C=C[C@@H]1C[C@]1(NC(=O)[C@@H]1C[C@@H](Oc2nccc3cc(OC)ccc23)CN1C(=O)[C@@H](NC(=O)OC(C)(C)C)[C@@H](C)OC(C)(C)C)C(=O)NS(=O)(=O)C1CC1 [Compound 93] | 100 to 1000 nM |  | 100 to 1000 nM | 
C=C[C@@H]1CC1(NC(=O)[C@@H]1CC(Oc2nccc3cc(OC)ccc23)CN1C(=O)[C@@H](NC(=O)O[C@H]1C[C@@H](C)CC[C@@H]1C(C)C)C(C)(C)C)C(=O)NS(=O)(=O)C1CC1 (some centres unmarked) [Compound 65] | < 100 nM |  | 100 to 1000 nM | 
C=C[C@@H]1C[C@]1(NC(=O)[C@@H]1CC(Oc2nccc3cc(OC)ccc23)CN1C(=O)[C@@H](NC(=O)C(CC)CC)C(C)(C)C)C(=O)NS(=O)(=O)C1CC1 (some centres unmarked) [Compound 57] | < 100 nM |  | 100 to 1000 nM | 
C=CC1C[C@]1(NC(=O)[C@@H]1C[C@@H](Oc2cc(C(F)(F)F)nc3ccccc23)CN1C(=O)[C@@H](NC(=O)OC(C)(C)C)C(C)(C)C)C(=O)NS(=O)(=O)C1CC1 (stereo partly drawn) [Compound 180, BOCNH-P3(L-tert-BuGly)-P2[(4R)-(2-trifluoromethyl quinolin-4-oxo)-S-proline]-P1(1R,2S Vinyl Acca)-CONHSO2-Cyclopropane] | < 100 nM |  | 100 to 1000 nM | 
